According to PubChem BioAssay (NCI):
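Interpolation was linear, between the two tested concentrations surrounding the appropriate level; five concentrations were tested over 48 hours in 96-well plates. GI50: concentration for 50% inhibition of growth. TGI: concentration producing complete growth inhibition.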

Columns and labels:
Test in all cases: growth of human tumour cells (NCI), 48 h
HOP-18 NSCLC = test system: HOP-18 NSCLC
M19-MEL melanoma = test system: M19-MEL melanoma
DMS 114 small cell lung = test system: DMS 114 small cell lung
SNB-78 CNS = test system: SNB-78 CNS
DLD-1 colon = test system: DLD-1 colon
MCF7 breast = test system: MCF7 breast
MDA-N = test system: MDA-N
XF 498 CNS = test system: XF 498 CNS

| Compound | TGI (DLD-1 colon) [µM] | GI50 (MCF7 breast) [µM] | TGI (MCF7 breast) [µM] | further results |
| --- | --- | --- | --- | --- |
| CN(C(=O)C1CC1)C1C2CN3CCC(O2)C13 (stereo not drawn) | > 100 | – | – | TGI (HOP-18 NSCLC): > 100 µM; TGI (M19-MEL melanoma): > 100 µM; TGI (DMS 114 small cell lung): > 100 µM; TGI (SNB-78 CNS): > 100 µM |
| CC1(C)CC(O)CCCCCCOc2c(CN)cccc2NC(=O)c2nc(cnc2N)-c2ccc(cc2)S1(=O)=O (stereo not drawn) | – | < 0.01 | 1.81 | – |
| CO[C@H]1/C=C/C[C@H](C)[C@@H](C)S(=O)(=O)NC(=O)c2ccc3c(c2)N(C[C@@H]2CC[C@H]21)C[C@@]1(CCCc2cc(Cl)ccc21)CO3 | – | 1.43 | 9.77 | – |
| Cc1cc(S(=O)(=O)Nc2nc3ccsc3c(=O)n2Cc2ccccc2)c(S)cc1Cl | – | 34.4 | > 100 | – |
| O=C1C(Nc2cccc(O)c2)=C(Sc2ccc(Cl)cc2)C(=O)N1Cc1ccccc1 | – | 5.86 | > 100 | – |
| C#CCOc1cccc(Nc2ncnc3c2ncn3C2CCN(C(=O)CCl)C2)c1 (stereo not drawn) | – | 18.7 | 41.4 | – |
| CC(C)(C)n1cc(-c2ccnc(NCCCNS(=O)(=O)c3ccc(Cl)cc3)c2)c(-c2cccc(O)c2)n1 | – | 1.84 | 3.91 | – |
| CCC(C)c1cnc(CC(C)C)c(=O)[nH]1 (stereo not drawn) | – | – | > 100 | TGI (MDA-N): > 100 µM |
| C=C(C)C1CCC2(CO)C(O)CC3(C)C(CCC4C5(C)CCC(O)C(C)(C)C5CCC43C)C12 (stereo not drawn) | – | – | 43.6 | TGI (MDA-N): > 100 µM |
| Cc1ccc(C(=O)Nc2ccccc2C(=O)N/N=C(\c2ccccc2)c2ccccn2)cc1 | – | 0.359 | > 100 | – |
| CN(C)CCN1C(=O)c2cccc3c(-c4ccc5ncn(C6CCCCC6)c5c4)ccc(c23)C1=O | – | 1.56 | 11.1 | – |
| CC(=O)Oc1cc(OC(C)=O)c2cc3c(cc2c1OC(C)=O)C(=O)C1(CCCC1)C3=O | 37 | – | – | TGI (HOP-18 NSCLC): 38.5 µM; TGI (M19-MEL melanoma): 32 µM; TGI (DMS 114 small cell lung): 31.6 µM; TGI (XF 498 CNS): 30 µM; TGI (SNB-78 CNS): 50 µM |
| Clc1ccc2c(NCCN3CCN(c4ccnc(N5CCCC5)n4)CC3)ccnc2c1 | – | 1.96 | 8.04 | – |
| COc1cc2c(cc1-c1c(C)noc1C)ncc1[nH]c(=O)n([C@H](C)c3ccccn3)c12 | – | 0.195 | > 100 | – |
| C/C=C/COc1cc(NC(=S)c2ccoc2C)ccc1OC | – | – | > 100 | TGI (MDA-N): > 100 µM |
| COc1ccc(Cn2c3c(c4c(O)cccc42)C(=O)c2ccccc2-3)cc1 | – | 10.7 | 28.1 | – |

| Compound | TGI (DLD-1 colon) [µM] | GI50 (MCF7 breast) [µM] | TGI (MCF7 breast) [µM] | further results |
| --- | --- | --- | --- | --- |
| CCN1CCN(c2cc(C)nc(NCc3cc(Nc4ccnc5cc(Cl)ccc45)ccc3F)n2)CC1 | – | 0.302 | 16.9 | – |
| C[C@@H]1CCC2[C@@H](C)[C@H](OC(=O)CCC(=O)NCCNC(=O)Cc3cc(=O)oc4cc(N(C)C)ccc34)O[C@@H]3O[C@]4(C)CC[C@@H]1C23OO4 (stereo partly drawn) | – | 2.92 | 28.2 | – |
| O=C(Nn1c2c(sc1=NC1CC1)C(=O)c1ccccc1C2=O)c1cc2ccc1CCc1ccc(cc1)CC2 | – | 1.42 | 3.29 | – |
| Cc1[nH]ccc2cc3nc4ccccc4c3cc12 | – | 1.34 | 5.63 | – |
| CC(=O)[CH-]C(=O)c1ccccc1.CC(=O)[CH-]C(=O)c1ccccc1.CC12CC3(C)CC(C)(C1)CC([O-])(C2)C3.CC[O-].[Ti+4] | 78.6 | – | – | GI50 (HOP-18 NSCLC): 37.4 µM; TGI (HOP-18 NSCLC): > 100 µM; GI50 (DLD-1 colon): 17 µM |
| O=C(Nc1cc([N+](=O)[O-])cc([N+](=O)[O-])c1)OC1C2CCC1C1OC1C2 (stereo not drawn) | > 50 | – | – | TGI (M19-MEL melanoma): > 50 µM; TGI (DMS 114 small cell lung): > 50 µM; TGI (SNB-78 CNS): > 50 µM |
| C=CC1=C(C)C(Cc2[nH]c(/C=c3\[nH]/c(=C/C4=NC(=O)C(C)/C4=C\C)c(C)c3CCC(=O)O)c(CCC(=O)OC)c2C)NC1=O (stereo not drawn) | – | 26.7 | > 100 | GI50 (MDA-N): 25.6 µM; TGI (MDA-N): 66.7 µM |
| C[n+]1ccc2[nH]c3ccccc3c2c1 | > 100 | – | – | TGI (HOP-18 NSCLC): > 100 µM; TGI (M19-MEL melanoma): > 100 µM; TGI (SNB-78 CNS): > 100 µM |
| CN(/C(=N\O)c1ccccc1)c1ccccc1 | > 100 | – | – | TGI (M19-MEL melanoma): > 100 µM; TGI (DMS 114 small cell lung): 86.1 µM; TGI (SNB-78 CNS): 88.7 µM |
| CCCCCC/C=C\CCCCCCCCCc1c(O)c(OC)cc(O)c1CN(C)C | – | – | 7 | TGI (MDA-N): 32.2 µM |
| CCN1CCC(O)(c2ccc(Cl)c(Cl)c2)C(C(=O)c2ccc(Cl)c(Cl)c2)C1 (stereo not drawn) | 33 | – | – | TGI (DMS 114 small cell lung): 33.9 µM; TGI (XF 498 CNS): 34.4 µM |
| CC(=O)[CH-]C(=O)c1ccccc1.CC(=O)[CH-]C(=O)c1ccccc1.CC[O-].O=C1C=C([O-])C(=O)c2ccccc21.[Ti+4] | > 100 | – | – | GI50 (HOP-18 NSCLC): 95.4 µM; TGI (HOP-18 NSCLC): > 100 µM; GI50 (DLD-1 colon): > 100 µM |
| CCOC(CN(C)C(=O)OCC(Cl)(Cl)Cl)OCC | – | – | > 100 | TGI (MDA-N): > 100 µM |
| CCc1ccccc1NC(=O)C1=C(C)NC(C)=C(C(=O)Nc2ccccc2CC)C1c1ccc(NC(C)=O)cc1 | 87.6 | – | – | TGI (M19-MEL melanoma): > 100 µM; TGI (DMS 114 small cell lung): > 100 µM; TGI (SNB-78 CNS): 82.1 µM |
| COc1ccc(CC(C#N)c2cc(OC)c(OC)c(OC)c2)cc1 (stereo not drawn) | > 100 | – | – | TGI (M19-MEL melanoma): > 100 µM; TGI (XF 498 CNS): 28.6 µM; TGI (SNB-78 CNS): > 100 µM |
| O=C(O)CCc1nc(-c2ccccc2)c(-c2ccccc2)o1 | – | – | > 100 | TGI (MDA-N): > 100 µM |
